{
  "source": "ChEMBL document CHEMBL1147587",
  "about": "“Synthesis of 7'-[123I]iodo-D-luciferin for in vivo studies of firefly luciferase gene expression” (Bioorg Med Chem Lett, 2004)",
  "system": "Lampyridae",
  "description": "Michaelis-Menten constant for binding affinity towards firefly luciferase",
  "data": [
    {"smiles": "O=C(O)[C@H]1CSC(c2nc3ccc(O)c(I)c3s2)=N1", "values": [
      {"measurement": "Km", "result": 4.28, "unit": "µM"}
    ]}
  ]
}
